Assay results reported in PMC10616201, “Antioxidant and α-glucosidase inhibitory activities of compound isolated from Stachytarpheta jamaicensis (L) Vahl. leaves” (Scientific Reports, 2023).

Target: T1, α-glucosidase (EC 3.2.1.20; rat intestinal acetone powder)
T1 construct: gene Si; crude supernatant of rat intestinal acetone powder (Sigma 1639) in normal saline; native, unpurified; maltase activity read as glucose release
Experiment: glucose release from maltose, glucose kit, absorbance […] nm
Type: biochemical
Conditions: 10 mM maltose, 0.1 M buffer pH 6.9, 10 min, crude rat intestinal supernatant

α-Glucosidase inhibition / IC50: 537.79 ± 45.04 µg/mL
Compound: COC(=O)C1=CO[C@@H](O[C@@H]2O[C@H](CO)[C@@H](O)[C@H](O)[C@H]2O)[C@H]2[C@]1(O)[C@H](O)C[C@]2(C)O [compound 1, 6β-hydroxyipolamiide]
